Where “and” joins values, the source holds several entries; their conditions need not be identical. Equal entries are not always repeated.
How the values were obtained:
Type in all cases: in vivo
Spodoptera litura [1] = assay: Diet incorporation method against Spodoptera litura (Example B); conditions: single compound, 1 ppm, 96 h
Protocol: The diet incorporation method was used, in which semi-synthetic diet was incorporated into the test solution consisting either of the single compound or respective compound combinations, when the temperature was approximately 50° C. in the bioassay containers, then stirred thoroughly for proper mixing and allowed to cool for 30 min. The solidified diet was cut into equal pieces, and then each piece was transferred into one cell of the bio-assay trays. A single starved third instar larva was released into each of these cells of the bio-assay trays and the tray was covered with a lid. The bio-assay trays were kept under laboratory conditions at a temperature of 25° C. and relative humidity of 70%. Observations on dead, moribund and live larvae were recorded 96 h after the release. Percent mortality was calculated by combining dead and moribund larvae and comparing the result with the one of the untreated control. The results are shown for the compound of formula (I-III) in Table B.

Erysiphe cichoracearum = assay: Preventive glasshouse test against Erysiphe cichoracearum in cucumber (Example K); conditions: single compound
Protocol: The single compounds or the respective compound combinations were dissolved in 2% dimethyl sulfoxide/acetone and then mixed with water containing emulsifier to a calibrated spray volume of 50 mL. The test solutions were poured into spray bottles for further applications.
To test the preventive activity of compounds, healthy young cucumber plants, raised in the greenhouse, were sprayed with the active compound preparation at the stated application rates inside the spray cabinets using hollow cone nozzles. One day after treatment, the plants were inoculated with a conidial suspension containing 2×10^5 Erysiphe cichoracearum inoculum. The inoculated plants were then kept in a greenhouse chamber at a temperature of 22-24° C. and 50-60% relative humidity for disease expression.
A visual assessment of the performance of the compounds and the respective compound combinations was carried out by rating the disease severity (0-100% scale) on treated plants 3, 7, 10 and 15 days after application. Efficacy (% control) of the single compounds or compound combinations was calculated by comparing the disease rating in the treatment with the one of the untreated control. The compounds were also assessed for their plant compatibility by recording symptoms like necrosis, chlorosis and stunting. The results have been described for the compound of formula (I-III) in Table K.

Plutella xylostella [2] = assay: Leaf dip method (cabbage leaves) against Plutella xylostella (Example C); conditions: single compound, 72 h
Protocol: The leaf dip method was used, wherein the required quantity of the compound or respective compound combinations were weighed and dissolved in a test solution prepared in tubes. The tubes were put on a vortex at 2000 rpm for 90 min for proper mixing and then the test solutions were diluted with 0.01% Triton-X to the desired test concentration. Cabbage leaves were dipped into the solution for 10 seconds, shade dried for 20 min and then transferred to single cells of bioassay trays. A single second instar larva was released into each cell and the tray was covered with a lid. The bio-assay trays were kept under laboratory conditions at a temperature of 25° C. and relative humidity of 70%. Observations on dead, moribund and live larvae were recorded 72 h after the release. Percent mortality was calculated by combining dead and moribund larvae and comparing the result with the one of the untreated control. The results are shown for compound of formula (I-III) in Table C.

Helicoverpa armigera [3] = assay: Diet incorporation method against Helicoverpa armigera (Example A); conditions: single compound, 0.2 ppm, 96 h
Protocol: The diet incorporation method was used, in which semi-synthetic diet was incorporated into the test solutions consisting either of the single compounds or respective compound combinations, when the temperature was approximately 50° C. in the bio-assay containers, then stirred thoroughly for proper mixing and allowed to cool for 30 min. The solidified diet was cut into equal pieces, and then each piece was transferred into one cell of a bio-assay tray. A single starved third instar larva was released into each of these cells of the bio-assay trays and the tray was covered with a lid. The bio-assay trays were kept under laboratory conditions at a temperature of 25° C. and relative humidity of 70%. Observations on dead, moribund and live larvae were recorded 96 h after the release of the larvae. Percent mortality was calculated by combining dead and moribund larvae and comparing the result to the one of the untreated control. The results are shown for the compound of formula (I-III) in Table A.

Helicoverpa armigera [4] = assay: Leaf dip method (tomato leaves) with Bacillus thuringiensis against Helicoverpa armigera (Example D); conditions: single, 0.1 ppm, 72 h
Protocol: (§1) The leaf dip method was used, wherein the required quantity of the compounds were weighed and dissolved in a test solution prepared in tubes. The tubes were put on a vortex at 2000 rpm for 90 min for proper mixing and then, for the single compounds, diluted with a 0.01% Triton-X solution, for the combinations, diluted with a 0.01% Triton-X solution containing formulated Bt, to get the desired test concentrations. Tomato leaves were dipped in the solution for 10 seconds, shade dried for 20 min and then transferred to single cells of the bioassay trays. A single third instar larva was released into each cell and the tray was covered with a lid. The bio-assay trays were kept under laboratory conditions at a temperature of 25° C. and relative humidity of 70%. Observations on dead, moribund and live larvae were recorded at 72 h after the release. Percent mortality was calculated by combining dead and moribund larvae and comparing the result to the one of the untreated control. The results have been described for compound of formula (I-III) in Table D.

Plutella xylostella [5] = assay: Leaf dip method (cabbage leaves) with Bacillus thuringiensis against Plutella xylostella (Example F); conditions: single, 0.1 ppm, 72 h
Protocol: as §1, with “desired test concentration. Cabbage leaves were” for “desired test concentrations. Tomato leaves were”, “cells of bioassay trays.” for “cells of the bioassay trays.”, “A single second instar larva” for “A single third instar larva”, “were recorded 72 h” for “were recorded at 72 h”, “comparing the results to the” for “comparing the result to the”, “in Table F.” for “in Table D.”

Spodoptera litura [6] = assay: Leaf dip method (tomato leaves) with Bacillus thuringiensis against Spodoptera litura (Example E); conditions: single, 0.1 ppm, 72 h
Protocol: as §1, with “test concentration.” for “test concentrations.”, “the results” for “the result”, “Table E.” for “Table D.”

6-(3-bromo-1-(3-chloropyridin-2-yl)-1H-pyrazole-5-carboxamido)-N-isopropyl-5-methylpyrazolo[1,5-a]pyridine-7-carboxamide [Compound (I-III)]
Observed Efficacy (%) (Spodoptera litura [1]): 12.5% and 25%
Observed Efficacy (%) (Erysiphe cichoracearum; Conc. 100 ppm): 17%
Observed Efficacy (%) (Erysiphe cichoracearum; Conc. 500 ppm): 17% and 19% and 28%
Observed Efficacy (%) (Plutella xylostella [2]; 0.05 ppm): 12.5%
Observed Efficacy (%) (Plutella xylostella [2]; 0.1 ppm): 12.5%
Observed Efficacy (%) (Plutella xylostella [2]; 0.5 ppm): 25%
Observed Efficacy (%) (Helicoverpa armigera [3]): 12.5%
Observed Efficacy (%) (Helicoverpa armigera [4]): 12.5%
Observed Efficacy (%) (Plutella xylostella [5]): 12.5%
Observed Efficacy (%) (Spodoptera litura [6]): 0%
